Data: patent US10464957B2, “Oxidized lipids and methods of use thereof” (Vascular Biogenics Ltd., priority 2014, dated 2019)

Key:
TLR4 complex = molecular target: T1, TLR4 complex (Homo sapiens, UniProt O00206+Q9Y6Y9); assay: LPS binding inhibition assay (biotin-LPS, FACS); conditions: biotin-LPS 100 ng/ml, FACS
T1 construct: endogenous in cells; probably the human primary monocytes of b454
Protocol: To assess interference with lipopolysaccharide (LPS) binding, VB-201 or VB-703 were incubated for 20 min with cells (10^6/ml) after which 100 ng/ml of biotin-LPS (InvivoGen) was added for an additional 15 minutes, all at 4° C. Cells were washed, resuspended in FACS buffer and analyzed on a FACS-Calibur device.

[1] = system: human monocytes (primary CD14+); assay: Chemokine-induced cell migration trans-well assay; type: cell-based; conditions: RANTES 100 ng/ml and MCP-1 50 ng/ml, 2-4 hours, FACS count
Protocol: Venous blood samples were obtained from healthy male donors in compliance with the Institutional Review Board at the Sheba Medical Center, Ramat Gan, Israel. PBMCs were isolated on Ficoll-Paque PLUS (GE Healthcare, Uppsala, Sweden) using 50 ml Leucosep tubes (Greiner Bio-One, Frickenhausen, Germany). Cells were washed in PBS (Kibbutz Beit Haemek, Israel) and incubated at 4° C. for 15 minutes in a buffer containing PBS and 0.5% bovine serum albumin (BSA) with human CD14 microbeads (Miltenyi Biotec, Bergisch Gladbach, Germany).
Cells (10^6/ml) were pretreated for 20 min with VB-201 or VB-701 at the doses indicated in FIG. 5, or with solvent (Sol).
To test for chemokine-induced cell migration, RANTES (100 ng/ml; Cat. No. 300-06, PeproTech, Israel) and MCP-1 (50 ng/ml; Cat. No. 300-04, PeproTech, Israel) were dissolved in RPMI-1640 medium supplemented with 0.5% fetal bovine serum (FBS) and placed at the lower chamber of QCM 24-well, […], migration assay plates (Corning-Costar, Corning, N.Y.). Cells (3×10^5) were seeded in the upper chamber and incubated for 2-4 hours. Subsequently, the number of cells which migrated to the lower compartment was determined by fluorescence-activated cell sorting (FACS).

[2] = system: kidney of nephrectomized rats; assay: Real-time PCR of pro-fibrotic markers in kidney of nephrectomized rats; type: in vivo, Sprague Dawley (SD) Rats
Protocol: Kidney RNA was extracted with an RNeasy Fibrous Tissue Mini kit (Qiagen) and after DNAse I treatment, single-stranded cDNA was synthesized from 2 μg total RNA using the qScript cDNA Synthesis Kit (Quanta Biosciences) and diluted for real-time PCR. The expression of collagen 4α, fibronectin and TGFβ was quantified using the 7300 Real Time PCR System (Applied Biosystems). The assay was performed according to manufacturer instructions using the primers (Assay ID) represented at the table below supplied by Applied Biosystems. Data were normalized to the reference gene TATA box Binding Protein (TBP) and presented as relative mRNA levels compared with Sham PBS 0.5% Eth treatment (Table 1).

NASH-induced mice = assay: NASH and liver fibrosis mouse model (STZ + HFD), liver histology; type: in vivo; conditions: VB-703 4 mg/kg, telmisartan 10 mg/kg, once daily for three weeks
Protocol: Neonatal male mice exposed to low-dose streptozotocin (STZ) develop liver steatosis with diabetes. Continuous high fat diet (HFD) increases lobular inflammation with foam cell-like macrophages, showing nonalcoholic steatohepatitis (NASH) pathology. NASH was induced in 40 male mice by a single subcutaneous injection of 200 μg per mouse of STZ two days after birth and feeding HFD [57 kcal % fat]) from four weeks of age. Vehicle, VB-703 (4 mg/kg), or telmisartan (10 mg/kg) as positive control, were administered once daily for three weeks, starting from six weeks of age. Mice were sacrificed at nine weeks of age.
Liver pathology was used to determine the effect of VB-703 on liver inflammation and fibrosis. Histology slides were stained with hematoxylin/eosin (H&E) to assess inflammation. The inflammation score was determined as follows:
Histology slides were stained with Sirius red to determine collagen content as a marker for the extent of fibrosis.

nephrectomized rats = assay: 5/6 nephrectomy chronic renal disease rat model (focal and segmental glomerulosclerosis); type: in vivo, Sprague Dawley (SD) Rats; conditions: VB-703 4 mg/kg
Protocol: Male Sprague Dawley (SD) Rats (Harlan Laboratories, Israel) with an initial weight of 200 g were housed 2-3 per cage in IVC cages in dedicated HVAC (heat, ventilation, air conditioning animal facility at a temperature of 22±2° C. and RH (relative humidity) of 55±15%). Temperature and humidity were monitored continuously. The facility had no exposure to outside light and was maintained on automatic alternating cycles of 12 hours of light and 12 hours of dark. Animals were provided with a commercial rodent diet (Harlan Teklad TRM Rat/Mouse Diet) ad libitum and allowed free access to autoclaved water, supplied to each cage via polysulphone bottles with stainless steel sipper tubes. All animal work was approved by the Animal Care and Use Committee of Israel (IL-13-03-027).
Rats were divided into three groups: (1) Healthy rats (n=3) in group A, (2) Sham group—subjected to chirurgical process but without kidney mass reduction (n=3) in group B, and (3) the rest were induced with chronic renal failure (n=32). Chronic renal failure was induced by a two stage (5/6) nephrectomy (Nx), with subtraction firstly of about ⅔ of the left kidney by left flank incision and, one week later, complete removal of the right kidney. General anesthesia consisted of intraperitoneal injection of ketamine 100 mg/kg and xylazine 20 mg/kg (0.85 ml ketamine+0.15 ml xylazine for each ml preparation; 1 μl/g BW was injected I.P).
One week following the second surgery, rats were randomly assigned to the following experimental groups:
Nephrectomized, orally administered with VB-703 4 mg/kg (n=8); and
Nephrectomized, orally administered with telmisartan 10 mg/kg as positive control (n=8).
Body weight (BW) was monitored throughout the study and rats were treated by oral gavage according to their body weight for 7 weeks. Rats were sacrificed by CO2 inhalation 8 weeks from removal of the right kidney (2nd surgery).
Proteinuria and albuminuria was determined in urine specimens, collected during a 24-hour period, from animals housed in cages at 4 weeks (3 w of treatment) and 8 weeks (7 w of treatment) after the subtotal nephrectomy (2nd surgery). Urine samples were analyzed for: glucose, urea, sodium, potassium, creatinine, total protein, and albumin.
Upon sacrifice, at 8 weeks, kidneys were collected, weighed and fixed in 4% formaldehyde.
For light microscopy, paraffin-embedded tissue slides of 4 μm were stained with Periodic Acid-Schiff (PAS) reagent, Masson's Trichrome and Hematoxylin & Eosin.
Glomerular sclerosis index. Glomerulosclerosis was assessed by PAS-stained sections using a semiquantitative scoring system. The extent of glomerulosclerosis was evaluated by examining mostly 100 randomly selected glomeruli at a magnification of ×400 and applying a score system according to the percentage of sclerosed glomerular area. The score was graded from 0 to 4: (0=0% area; 1=1-25%; 2=26-50%, 3=51-75%, 4=76% and above). The mean of all scored glomeruli was presented. Moreover, the extent of global and segmental glomerulosclerosis was evaluated in the same glomeruli, where <80% sclerosis was referred to as segmental and >80% was referred to as global.
Glomerular area. The glomerular area of mostly 100 randomly selected glomeruli at a magnification of ×100 was quantitated by counting squares covered by glomeruli area using a grid and the mean glomeruli area was calculated.
Renal tissues were fixed in 4% formaldehyde and embedded in paraffin. The paraffin-embedded tissues were then cut to form tissue slides of 4 μm. Immunohistochemistry of the paraffin-embedded tissue slides was analyzed using antibodies in the following concentration: monoclonal mouse anti rat CD-68 (ED-1, Serotec MCA341) 1:25. For quantitation of interstitial CD68+ staining, the number of positive cells was counted in 20 randomly selected non-overlapping fields per animal, and the mean value was presented. […]

[3] = compared to Nx PBS 0.5% Eth treatment, VB-703 4 mg/kg, telmisartan 10 mg/kg
[4] = normalized to TBP, relative to Sham PBS 0.5% Eth, mean±SEM
[5] = Nx rats, Telmisartan 10 mg/kg, 8 weeks, Mean ± S.E
[6] = telmisartan 10 mg/kg, oral 7 weeks, vs Nx PBS 0.5% Eth

T1 sequence (O00206 24-839): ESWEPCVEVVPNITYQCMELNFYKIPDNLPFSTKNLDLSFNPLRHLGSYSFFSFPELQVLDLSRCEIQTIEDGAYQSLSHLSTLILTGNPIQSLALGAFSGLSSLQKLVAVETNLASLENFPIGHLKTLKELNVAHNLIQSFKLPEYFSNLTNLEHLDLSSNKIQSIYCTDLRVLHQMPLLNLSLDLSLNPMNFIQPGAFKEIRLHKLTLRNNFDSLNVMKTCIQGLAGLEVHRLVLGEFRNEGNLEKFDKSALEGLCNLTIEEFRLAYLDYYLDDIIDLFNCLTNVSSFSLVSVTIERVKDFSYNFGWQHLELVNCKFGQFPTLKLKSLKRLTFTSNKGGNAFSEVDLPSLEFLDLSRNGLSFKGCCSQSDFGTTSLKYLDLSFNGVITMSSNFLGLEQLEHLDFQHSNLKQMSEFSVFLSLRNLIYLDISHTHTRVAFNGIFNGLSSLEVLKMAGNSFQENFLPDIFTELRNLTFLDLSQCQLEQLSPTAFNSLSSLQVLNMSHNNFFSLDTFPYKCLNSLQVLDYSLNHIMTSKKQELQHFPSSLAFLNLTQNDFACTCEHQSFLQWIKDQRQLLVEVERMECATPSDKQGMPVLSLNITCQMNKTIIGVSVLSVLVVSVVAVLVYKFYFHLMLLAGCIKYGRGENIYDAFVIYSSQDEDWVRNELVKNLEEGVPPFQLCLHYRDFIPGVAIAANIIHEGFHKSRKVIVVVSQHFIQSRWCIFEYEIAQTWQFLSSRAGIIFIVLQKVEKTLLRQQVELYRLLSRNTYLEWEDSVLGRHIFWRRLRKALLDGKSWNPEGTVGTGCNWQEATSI
T1 sequence (Q9Y6Y9 17-160 limits assumed): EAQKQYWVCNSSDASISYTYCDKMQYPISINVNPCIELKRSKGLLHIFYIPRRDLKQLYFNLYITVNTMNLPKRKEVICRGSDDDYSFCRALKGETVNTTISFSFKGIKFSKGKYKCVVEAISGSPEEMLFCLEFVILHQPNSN

CCCCCCCCCCCCCCCCOCC(COP(=O)([O-])OCC[n+]1ccccc1)OCCCCC(=O)OC (stereo not drawn) [VB-704, 1-hexadecyl-2-(4′-carboxymethyl)butyl-glycero-sn-3-phosphoric acid pyridiniumethyl ester]
LPS-biotin binding to human monocytes (primary CD14+) (TLR4 complex): does not inhibit
chemokine-induced migration of human monocytes [1]: inhibits

CCCc1nc2c(C)cc(-c3nc4ccccc4n3C)cc2n1Cc1ccc(-c2ccccc2C(=O)O)cc1 [telmisartan, reference compound]
reduction of Collagen IV expression [2, 3]: 41%
reduction of TGF-β expression [2, 3]: 44%
reduction of fibronectin expression [2, 3]: 23%
Collagen IV mRNA expression (relative mRNA level) [2, 4]: 4.4±0.23
TGF-β mRNA expression (relative mRNA level) [2, 4]: 4.7±0.52
fibronectin mRNA expression (relative mRNA level) [2, 4]: 9.8±2.09
decrease of liver fibrosis compared to vehicle treated mice (Sirius red) (NASH-induced mice): 47%
Glomerular sclerosis Global % (nephrectomized rats; [5]): 1.9 ± 1.60%
Glomerular sclerosis Global & Segmental % (nephrectomized rats; [5]): 21.0 ± 5.45%
Glomerular sclerosis Segmental % (nephrectomized rats; [5]): 19.1 ± 4.30%
glomerular and interstitial monocyte/macrophage infiltration (CD68 positive cells) (nephrectomized rats; telmisartan 10 mg/kg, 8 weeks): did not produce a significant effect
reduction of damaged glomeruli percent (nephrectomized rats; [6]): 31%
reduction of sclerotic glomeruli (nephrectomized rats; [6]): 57%
